In PMC7844219, “Antifibrotic effect of novel neutrophil gelatinase-associated lipocalin inhibitors in cardiac and renal disease models” (Scientific Reports, 2021):

Tests used:
[1] = system: TGFβ-treated mouse kidney fibroblasts; assay: Specificity: gene expression in TGFβ-treated mouse kidney fibroblasts; assay type: cell-based; settings: 10 µM, Fig. S6
Description: (§1) Primary human cardiac fibroblasts (HCF) were obtained from Promocell (Heidelberg, Germany) and maintained in Fibroblast Media 3 following manufacturer’s instructions (Promocell). Cells were used between passages 5 and 7. Cells were stimulated with recombinant hNGAL (500 ng/mL, R&D Systems) or with TGFβ (10 ng/mL, R&D Systems) for 24 h. To assess cell proliferation the MTT test was used following provider’s instructions (Roche). For protein analysis. Primary Mouse Kidney Fibroblasts (MKF) were isolated from Wild Type (WT) mice. Briefly, 8 weeks old mice were sacrificed by cervical dislocation and kidneys were cleaned and rinsed in cold DPBS (Dulbecco's Phosphate-Buffered Saline). The renal cortex was minced and incubated in Dulbecco’s modified eagle medium/Nutrient mixture F-12 (DMEM/F12, Sigma) containing 1 mg/mL collagenase A (Roche) during 25 min at 37 °C. The digestion was inactivated by adding culture medium (DMEM/F12 + 10% FBS) then the cell suspension was passed through a 100-μm cell strainer. […]
(§2) Frozen tissues (kidneys, heart) were homogenized in TRIzol (Life Technologies, Illinois, USA) using FastPrep beads (MP-Bio, CA, USA). cDNAs were generated using the Superscript II reverse transcriptase kit (Invitrogen,NY, USA), and qPCR was performed as previously described. Briefly, transcript levels were analysed in a CFX396 apparatus (Biorad). […]

hERG channel = target: T1, hERG channel (Homo sapiens, UniProt Q12809); assay: Cardiotoxicity, Predictor hERG fluorescence polarization kit; assay type: binding
T1 construct: purchased Thermo Fisher Scientific
Description: (§3) Several parameters have been evaluated to determine ADME-Tox profile of the compounds. Two specific toxicity assays have been performed to assess hepatoxicity and cardiotoxicity. Hepatotoxicity was evaluated in isolated hepatocytes from swiss mice and determined by the thiazolyl blue tetrazolium bromide colorimetric assay (sigma, St Louis, MO, USA). Cardiotoxicity was evaluated using the commercially available Predictor hERG fluorescence polarization kit (Thermo Fisher Scientific, Illinois, USA). Several absorption, distribution, metabolism, and excretion (ADME) assays have been carried out. The following experiments were undertaken: stability in human microsomes, binding to human plasma protein, and CYP3A4 inhibition assay (Vivid CYP3A4 assay, Thermo Fisher Scientific, Illinois, USA). Physico-chemical properties were also assessed such as aqueous solubility and chemical stability.

mNGAL = target: T2, mNGAL (Mus musculus, UniProt P11672); assay: mNGAL-induced gene expression in primary mouse kidney fibroblasts (RT-PCR); assay type: cell-based
T2 construct: purchased R&D Systems
T2 sequence (P11672 21-200): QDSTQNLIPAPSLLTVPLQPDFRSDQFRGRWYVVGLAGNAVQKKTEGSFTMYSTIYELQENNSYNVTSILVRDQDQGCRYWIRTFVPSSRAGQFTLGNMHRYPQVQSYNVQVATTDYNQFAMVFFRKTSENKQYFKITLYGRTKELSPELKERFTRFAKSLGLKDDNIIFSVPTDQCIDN
Description: (§4) Primary human cardiac fibroblasts (HCF) were obtained from Promocell (Heidelberg, Germany) and maintained in Fibroblast Media 3 following manufacturer’s instructions (Promocell). Cells were used between passages 5 and 7. Cells were stimulated with recombinant hNGAL (500 ng/mL, R&D Systems) or with TGFβ (10 ng/mL, R&D Systems) for 24 h. To assess cell proliferation the MTT test was used following provider’s instructions (Roche). For protein analysis. Primary Mouse Kidney Fibroblasts (MKF) were isolated from Wild Type (WT) mice. Briefly, 8 weeks old mice were sacrificed by cervical dislocation and kidneys were cleaned and rinsed in cold DPBS (Dulbecco's Phosphate-Buffered Saline). The renal cortex was minced and incubated in Dulbecco’s modified eagle medium/Nutrient mixture F-12 (DMEM/F12, Sigma) containing 1 mg/mL collagenase A (Roche) during 25 min at 37 °C. The digestion was inactivated by adding culture medium (DMEM/F12 + 10% FBS) then the cell suspension was passed through a 100-μm cell strainer. After centrifugation, the pellet (containing MKF) was diluted with culture medium then plated in 75 cm^2 culture flask. After 24 h MKF were washed with DPBS before replacement of fresh culture medium. Thereafter, culture medium was changed every 48 h. Once 70–80% confluent, MKF were trypsinized and plated in 12 or 6-well plates. For experimental use, MKF were starved with culture medium containing only 3% FBS. MKF were treated with mNGAL (500 ng/mL, R&D Systems) or with TGFβ (10 ng/mL, R&D Systems) for 6 h for gene expression analysis.
as §2, with “(Biorad). The reactions were performed in duplicate for each sample using the IQ SYBR Green supermix Kit (Biorad,CA, USA).” for “(Biorad).”

Aqueous solubility = assay type: physicochemical
Description: as §3

hNGAL = target: T3, hNGAL (Homo sapiens, UniProt P80188); assay: Cell proliferation (MTT) in hNGAL-treated human cardiac fibroblasts; assay type: cell-based
T3 construct: purchased R&D Systems
Description: as §4
Cell proliferation was assessed using the MTT Proliferation Assay (Sigma).

CYP3A4 = target: T4, CYP3A4 (Homo sapiens, UniProt P08684); assay: CYP3A4 inhibition assay (Vivid CYP3A4 assay); assay type: in vitro ADME
T4 construct: purchased Thermo Fisher Scientific
Description: as §3

[2] = system: TGFβ-treated human cardiac fibroblasts; assay: Specificity: IL6 and Col I secretion in TGFβ-treated human cardiac fibroblasts; assay type: cell-based; settings: 10 µM, Fig. S5
Description: as §1, with “strainer. After centrifugation, the pellet (containing MKF) was diluted with culture medium then plated in 75 cm^2 culture flask. After 24 h MKF were washed with DPBS before replacement of fresh culture medium.” for “strainer.”
IL6 and collagen type I concentrations were measured in cardiac tissue and cell supernatants by ELISA according to the manufacturer's instructions (R&D Systems).

Chemical stability = assay type: physicochemical
Description: as §3

T3 sequence (P80188 21-198): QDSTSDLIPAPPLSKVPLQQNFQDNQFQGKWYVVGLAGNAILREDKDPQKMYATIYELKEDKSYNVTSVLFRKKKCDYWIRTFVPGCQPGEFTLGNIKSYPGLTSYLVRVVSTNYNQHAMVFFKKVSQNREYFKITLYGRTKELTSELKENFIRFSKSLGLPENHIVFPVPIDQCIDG
T4 sequence (P08684 whole entry): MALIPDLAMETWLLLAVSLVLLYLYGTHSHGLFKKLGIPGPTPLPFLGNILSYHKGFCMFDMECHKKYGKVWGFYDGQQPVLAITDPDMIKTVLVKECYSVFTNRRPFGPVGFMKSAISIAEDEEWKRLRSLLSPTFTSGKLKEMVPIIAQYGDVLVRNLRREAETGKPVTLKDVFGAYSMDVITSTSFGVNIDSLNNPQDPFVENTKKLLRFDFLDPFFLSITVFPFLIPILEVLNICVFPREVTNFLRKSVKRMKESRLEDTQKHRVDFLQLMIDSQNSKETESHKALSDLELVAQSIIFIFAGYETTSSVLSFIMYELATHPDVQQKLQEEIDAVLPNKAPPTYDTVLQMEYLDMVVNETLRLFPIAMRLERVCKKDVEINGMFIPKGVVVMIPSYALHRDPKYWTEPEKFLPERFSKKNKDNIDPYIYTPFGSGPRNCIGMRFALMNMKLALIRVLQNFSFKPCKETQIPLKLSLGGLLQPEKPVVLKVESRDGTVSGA
T1 sequence (Q12809 whole entry): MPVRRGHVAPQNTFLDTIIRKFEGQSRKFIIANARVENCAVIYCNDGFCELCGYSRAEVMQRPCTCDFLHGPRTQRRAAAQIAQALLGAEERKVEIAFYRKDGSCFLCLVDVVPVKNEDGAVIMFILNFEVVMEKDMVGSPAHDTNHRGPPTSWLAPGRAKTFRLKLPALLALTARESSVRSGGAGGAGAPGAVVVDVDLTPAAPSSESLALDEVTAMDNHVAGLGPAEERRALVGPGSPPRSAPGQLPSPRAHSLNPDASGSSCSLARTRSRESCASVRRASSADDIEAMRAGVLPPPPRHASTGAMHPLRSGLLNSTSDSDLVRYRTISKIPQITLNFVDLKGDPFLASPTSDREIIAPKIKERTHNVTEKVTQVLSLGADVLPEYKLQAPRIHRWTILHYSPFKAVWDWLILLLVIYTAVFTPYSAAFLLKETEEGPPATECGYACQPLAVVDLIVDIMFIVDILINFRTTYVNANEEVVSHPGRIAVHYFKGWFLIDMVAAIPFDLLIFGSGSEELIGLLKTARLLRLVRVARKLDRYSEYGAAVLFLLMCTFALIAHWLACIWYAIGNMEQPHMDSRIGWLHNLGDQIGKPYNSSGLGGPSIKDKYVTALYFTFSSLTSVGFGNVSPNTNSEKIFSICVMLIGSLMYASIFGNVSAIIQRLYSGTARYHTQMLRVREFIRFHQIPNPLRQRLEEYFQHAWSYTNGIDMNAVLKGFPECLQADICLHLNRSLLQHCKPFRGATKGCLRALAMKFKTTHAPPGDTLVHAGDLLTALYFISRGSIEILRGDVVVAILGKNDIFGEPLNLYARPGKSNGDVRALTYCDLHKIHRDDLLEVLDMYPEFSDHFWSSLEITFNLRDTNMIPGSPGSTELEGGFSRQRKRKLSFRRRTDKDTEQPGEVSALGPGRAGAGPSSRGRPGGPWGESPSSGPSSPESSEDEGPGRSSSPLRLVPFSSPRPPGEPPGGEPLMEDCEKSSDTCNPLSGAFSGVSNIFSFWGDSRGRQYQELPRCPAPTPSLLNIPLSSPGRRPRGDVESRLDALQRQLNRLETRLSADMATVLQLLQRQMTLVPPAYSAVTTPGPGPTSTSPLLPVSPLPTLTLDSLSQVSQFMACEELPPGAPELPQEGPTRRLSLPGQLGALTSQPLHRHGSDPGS

Compound: CC(=O)c1cccc(S(=O)(=O)NCc2ccccc2-n2cccn2)c1 [GPZ614741]
- Effect on TGFβ-induced gene expression of Col I, Fibronectin and IL6 [1]: no inhibitory effect
- Cardiotoxicity (hERG predictor assay), in words (hERG channel): nontoxic
- Cardiotoxicity % (100= no toxicity) (hERG channel; Table S5, hERG predictor assay): 101.76 ± 2.48%
- NGAL-induced collagen I expression (mNGAL; 1 µM, mouse kidney fibroblasts, Fig. S4): prevented
- mNGAL-induced expression of profibrotic markers (Col I, fibronectin, αSMA) (mNGAL; 10 µM, MKF, mRNA, Fig. 3A): inhibited
- mNGAL-induced expression of inflammatory markers (IL6, MCP1) (mNGAL; 10 µM, MKF, mRNA, Fig. 3B): inhibited
- Solubility in aqueous buffers, in words (Aqueous solubility): perfectly soluble
- Aquous solubility % (Aqueous solubility; Table S5): 100%
- hNGAL-induced cell proliferation, in words (hNGAL; 10 µM, Fig. 1E): blocked
- Dose–response on proliferation induced by NGAL (hNGAL; Fig. S2): able to block the proliferative effects of NGAL at 1 and 10 µM, but not at lower concentrations
- Processing by CYP3A4, in words (CYP3A4): partially processed by CYP3A4
- CyP 3A4 Inhibition % (100= no inhibition) (CYP3A4; Table S5): 72.21 ± 1.94%
- Effect on TGFβ-increased IL6 and Col I secretion [2]: no inhibitory effect
- Stability to acidic pH, in words (Chemical stability): fully stable
- Chemical Stability % (Chemical stability; Table S5): 103%
